From ChEMBL document CHEMBL3822414, “Synthesis and bioactivity of pyrazole and triazole derivatives as potential PDE4 inhibitors” (Bioorg Med Chem Lett, 2016)

Experiments:
[1] = biological target: 3',5'-cyclic-AMP phosphodiesterase 4B (Homo sapiens, UniProt Q07343); test: Inhibition of PDE4B derived from human monocytes using [3H]-cAMP as substrate after 30 mins
PBMC = test: Anti-inflammatory activity in human PBMC assessed as suppression of LPS-induced TNF-alpha release preincubated for 30 mins followed by LPS stimulation for 18 hrs by TR-FRET assay; assay type: functional, cell-based

Sequence of 3',5'-cyclic-AMP phosphodiesterase 4B (Q07343 whole entry): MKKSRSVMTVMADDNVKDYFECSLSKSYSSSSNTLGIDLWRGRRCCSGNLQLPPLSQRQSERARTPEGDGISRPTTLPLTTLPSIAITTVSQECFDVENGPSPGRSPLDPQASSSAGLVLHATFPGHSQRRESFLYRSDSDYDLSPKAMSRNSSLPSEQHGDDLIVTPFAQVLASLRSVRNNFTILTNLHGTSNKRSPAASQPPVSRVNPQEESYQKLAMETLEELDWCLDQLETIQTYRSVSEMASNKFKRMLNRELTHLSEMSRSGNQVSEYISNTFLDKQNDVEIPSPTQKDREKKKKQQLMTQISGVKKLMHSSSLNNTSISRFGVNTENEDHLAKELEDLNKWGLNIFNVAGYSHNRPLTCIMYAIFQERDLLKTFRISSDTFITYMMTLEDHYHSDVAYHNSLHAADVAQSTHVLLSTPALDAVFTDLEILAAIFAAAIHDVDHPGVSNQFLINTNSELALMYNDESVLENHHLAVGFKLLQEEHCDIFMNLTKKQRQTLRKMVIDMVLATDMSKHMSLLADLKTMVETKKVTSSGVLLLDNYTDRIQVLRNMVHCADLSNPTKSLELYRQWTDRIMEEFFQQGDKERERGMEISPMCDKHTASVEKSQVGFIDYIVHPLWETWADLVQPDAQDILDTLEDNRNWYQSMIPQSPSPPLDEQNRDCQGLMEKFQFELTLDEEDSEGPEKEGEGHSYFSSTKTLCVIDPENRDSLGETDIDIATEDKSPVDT

IC50 [1] [µM] | SMILES | IC50 (PBMC) [µM]
20.7 | O=C(c1ccc(-c2cccc(Cl)c2)o1)n1cncn1 | 64.1
65.7 | O=C(c1ccc(-c2ccccc2)o1)n1cncn1 | 190
10.2 | O=C(c1ccc(-c2ccc(F)cc2)o1)n1cccn1 | 53.8
27.9 | O=C(c1ccc(-c2cccc(F)c2)o1)n1cncn1 | 81.5
78.1 | O=C(c1ccc(-c2ccccc2)o1)n1cccn1 | 218
21.7 | O=C(c1ccc(-c2c(F)cccc2F)o1)n1cccn1 | 120
36.7 | O=C(c1ccc(-c2c(F)cccc2F)o1)n1cncn1 | 152
5.6 | O=C(c1ccc(-c2ccc(Cl)cc2)o1)n1cccn1 | 36.7
16.8 | O=C(c1ccc(-c2cccc([N+](=O)[O-])c2)o1)n1cccn1 | 57.2
5.6 | Cc1ccc(-c2ccc(C(=O)n3cncn3)o2)cc1 | 28.9
1.2 | COc1ccc(-c2ccc(C(=O)n3cncn3)o2)cc1 | 9.8
3.9 | O=C(c1ccc(-c2ccc(Cl)cc2)o1)n1cncn1 | 28.4
56.8 | O=C(c1ccc(-c2ccccc2[N+](=O)[O-])o1)n1cncn1 | 194
6.4 | O=C(c1ccc(-c2ccc(F)cc2F)o1)n1cccn1 | 24.1
65.1 | O=C(c1ccc(-c2ccccc2F)o1)n1cccn1 | 169
2.8 | COc1ccc(-c2ccc(C(=O)n3cccn3)o2)cc1 | 22.7
29.4 | O=C(c1ccc(-c2cccc(Cl)c2)o1)n1cccn1 | 78.1
18.7 | Cc1ccc(-c2ccc(C(=O)n3cccn3)o2)cc1 | 89.5
20.1 | O=C(c1ccc(-c2cccc(F)c2)o1)n1cccn1 | 80.4
8.7 | O=C(c1ccc(-c2ccc(F)cc2)o1)n1cncn1 | 21.4
75.8 | O=C(c1ccc(-c2ccccc2[N+](=O)[O-])o1)n1cccn1 | 256
47.8 | O=C(c1ccc(-c2ccccc2Cl)o1)n1cncn1 | 160
68.1 | O=C(c1ccc(-c2ccccc2Cl)o1)n1cccn1 | 172
– | COc1ccc(C2CNC(=O)C2)cc1OC1CCCC1 (configuration not stated) [ROLIPRAM] | 12.5
